Test results as given in patent US20200296971A1, “COMPOSITIONS AND METHODS FOR DISPERSING BIOFILMS” (Texas State University, priority 2016, published 2020).
Read-outs that look alike come from different tables or passages of the source.

Assays:
river water biofilm = conditions: 0.5% boric acid, 60 seconds, FIG. 2B
Protocol: To visualize biofilm dispersion a water sample from the sampling site was collected. A microscope slide was placed in 30 ml of river water to cultivate a biofilm. The biofilm was then viewed under a dark field microscope and a 0.5% concentration of boric acid was applied and left for 60 seconds. FIG. 2A depicts a photograph of a microscope slide of river water with biofilms.

P. aeruginosa PAO-1 = conditions: Luria Broth, R2A broth, Davis minimal media with 0, 0.5, 1.0, 1.5% boric acid, FIG. 3
Protocol: (§1) In most experiments, cultures were grown in 96-well polystyrene microtiter plates as this allowed different growth media and replicates to be tested using an automated plate reader. Growth of suspended (planktonic) bacteria could be measured by the turbidity in the individual microtiter plate chambers (referred to as wells). […] To test for dispersion, the planktonic populations and growth media were removed and replaced with water containing various concentrations of the test compound. Dispersion was observed by an increase in turbidity (due to release of bacteria from biofilms) over 20 minutes.

P. aeruginosa biofilms [1] = conditions: 24 h at 37 C
Protocol: as §1
Experiments were conducted in order to examine the ability of P. aeruginosa biofilms grown on different growth media to be dispersed by boric acid. Here, bacteria were grown for 24 h at 37 C on an orbital shaking plate in a microtiter plate. The media was removed and the adherent P. aeruginosa biofilms were exposed to boric acid, placed in a plate reader and turbidity measured following agitation.

P. aeruginosa biofilms [2] = conditions: FIG. 4, line B
Description: To further study the mechanisms of boric acid-induced dispersion a collaboration with Dr. Karin Sauer, Binghamton University was initiated. […] FIG. 4 depicts a bar graph summarizing the results of experiments directed towards determining the ability of boric acid to disperse P. aeruginosa biofilms. The line designated as B is boric acid, D represents a positive control for dispersion and E a negative control.

[3] = system: Biofilms from a nearby river; conditions: river biofilm on stone, 5 minutes exposure, tested 0%, 0.25%, 0.5%, 1%, 2%, 3%
Protocol: Biofilms are described on the surface of small (15 mm×15 mm) stone.
Biofilms were exposed to various concentrations of Boric Acid. The concentrations used were 0%, 0.25%, 0.5%, 1%, 2%, 3%.
One stone was used per concentration and was measured and weighed for similarity. Each stone was rinsed with sterile H2O to remove any planktonic (not attached to biofilm) bacteria. Each stone was exposed to a known concentration for a time period of 5 minutes and then removed and placed into a separate vial containing 9 ml of sterile water. The vial with after treatment stone in sterile water was then sonicated for 60 seconds to remove any remaining biofilm to be quantified. Sonication served as a mechanical removal for any remaining biofilm.
Media was then placed in 30 C for 48 hrs and growth was quantified through counting colonies.

other organisms = conditions: FIG. 3
[4] = system: monoculture biofilm of Chromobacterium violaceum; conditions: 0.5% boric acid, 2 hours, lightly shaken
Protocol: Test of application: A 0.5% boric acid was injected into a bioreactor containing a monoculture biofilm of Chromobacterium violaceum. The bioreactor was left for 2 hours and lightly shaken.

P. aeruginosa biofilms [5] = system: P. aeruginosa biofilms
Protocol: P. aeruginosa was grown as planktonic and biofilm populations in different growth media for 48-120 h. Antimicrobial agents were tested in different boric acid concentrations. Boric acid controls lacked the antimicrobial compounds. Initial planktonic growth and dispersion were measured as described previously. After dispersion, the disinfectant and boric acid compounds were removed, replaced with sterile growth medium, and growth monitored by being placed into the plate reader and monitoring an increase of turbidity over an 18-36 h period.
Experiments were conducted in order to determine the ability of boric acid to enhance the antimicrobial action of betadine (poly(vinyl pyrrolidone) iodine). Betadine is commonly used as a disinfectant in clinical environments and the low concentration used (0.02% (w/v)) was chosen based on previous work as it has partial biofilm effectiveness. P. aeruginosa biofilms were grown for 2 and 5 days suspended above a shaking water bath. […] The media used consisted of artificial urine and artificial urine supplemented with 2 mM glucose (reflecting average urine chemistry in normal and diabetic patients). Davis minimal media (MM) and Luria-Bertani broth (LB) were used as representative minimal and rich media. Different biofilm incubation times were used as it is known that biofilm susceptibility to dispersion can increase with biofilm age.
The testing protocol involved the use of a 96-well microtiter plate and a programmable plate reader (Biotek Instruments). The plate reader was programmed for incubation at 37 C and would agitate the plate for 15 seconds prior to taking an absorbance reading of each well. Microtiter wells were partially filled (200 μl) with sterile growth media, then were inoculated with 2 μl of an overnight bacterial culture suspension. For each media and disinfection combination there were a minimum of two replicates as well as uninoculated wells (media without bacteria) to monitor contamination. The microtiter plates were covered with a lid and the sides sealed with Parafilm™ to prevent contamination. Plates were placed on a rack (above the water level) in a water bath, and incubated with shaking (150 rpm) for 2 and 5 days. Testing consisted of removing a plate from the incubator, placing in the plate reader for 30 minutes (allowing for evaporation of humidity) and reading the turbidity (evidence of planktonic growth). Culture media and planktonic cells were removed from the wells and 200-μl dispersant solution containing a mixture of boric acid and 0.02% (w/v) betadine suspended in PBS. Betadine was absent in the control samples. The microtiter plate was placed in the plate reader for 30 minutes (allowing for evaporation of humidity) and turbidity measurements taken (increased turbidity was evidence of biofilm dispersion). To measure biofilm survival, the plates were removed from the plate reader, the dispersant liquid removed, and replaced with sterile LB growth media. The plates were then placed in the plate reader and growth measured (increased turbidity) over a minimum 18 h period.

## OB(O)O [boric acid]
River water biofilm
  biofilm dispersion seen under dark field microscope: dispersed
P. aeruginosa PAO-1
  ability to grow in the presence of boric acid: grew in the presence of boric acid
P. aeruginosa biofilms [1]; Davis Minimal Media-grown biofilms
  boric acid concentration at which increased turbidity (evidence of dispersion) was seen: 1.0%
P. aeruginosa biofilms [1]; LB-grown biofilms
  dispersion (increased turbidity): no observable dispersion
P. aeruginosa biofilms [1]; R2A-grown biofilms
  boric acid concentration at which increased turbidity (evidence of dispersion) was seen: 0.5%
P. aeruginosa biofilms [2]
  ability to disperse biofilms in flow cell: verified the ability of boric acid to disperse P. aeruginosa biofilms
[3]
  concentration producing the highest percent release of biofilm: 0.5 % (w/v)
Other organisms
  concentration at which bacterial growth began to be inhibited: ≥ 1.5 % (w/v)
[4]
  removal of visible biofilm from bioreactor: All visible biofilm was removed
P. aeruginosa biofilms [5]; 5-day old PAO-1 biofilms grown in artificial urine, FIGS. 13 and 14, preliminary
  enhancement of betadine activity against older biofilms: does enhance the activity of betadine
P. aeruginosa biofilms [5]; 2 day old biofilms, artificial urine, boric acid without betadine, FIG. 6
  regrowth after treatment: growth did occur
P. aeruginosa biofilms [5]; artificial urine with glucose, FIG. 7
  effect of boric acid on betadine action: no effect
P. aeruginosa biofilms [5]; at the concentrations listed, preliminary results
  boric acid-induced toxicity: low level of boric acid-induced toxicity
P. aeruginosa biofilms [5]; two-day biofilms, Davis Minimal Media and Luria-Bertani broth, FIGS. 9 and 11
  betadine activity against biofilms in the presence of boric acid: enhanced
P. aeruginosa biofilms [5]; two-day biofilms, Davis Minimal Media and Luria-Bertani broth, FIGS. 10 and 12
  killing by boric acid treatment alone: did not kill P. aeruginosa
